Measured values published in ChEMBL document CHEMBL3045353, “Identification of new limonoids from Swietenia and their biological activity against insects” (Pest Manag Sci, 2010).
≈ marks a conversion by molar mass, not a printed value.

Key:
Heliothis virescens = assay: Growth inhibition of neonate larvae of Heliothis virescens (tobacco budworm) at 250 mg/l after 6 days relative to control; format: functional; details: 144 h, read-out: GI
Manduca sexta = assay: Growth inhibition of neonate larvae of Manduca sexta at 250 mg/l after 6 days relative to control; format: functional; details: 144 h, read-out: GI
Spodoptera frugiperda [1] = assay: Antifeedant activity against fourth-instar larvae of Spodoptera frugiperda (fall armyworm) fed on compound treated savanna grass for 18 hr; format: functional, organism-based
Helicoverpa zea = assay: Growth inhibition of neonate larvae of Helicoverpa zea (corn earworm)at 250 mg/l after 6 days relative to control; format: functional; details: 144 h, read-out: GI
Spodoptera frugiperda [2] = assay: Phagostimulant activity in fourth-instar larvae of Spodoptera frugiperda (fall armyworm) fed on compound treated savanna grass for 18 hr; format: ADME, organism-based; details: in vivo, po

Row | Structure (SMILES) | inhibition of growth at 250 µg/mL (Heliothis virescens) [%] | inhibition of growth at 250 µg/mL (Manduca sexta) [%] | DC50 (Spodoptera frugiperda [1]) [mg/L] | inhibition of growth at 250 µg/mL (Helicoverpa zea) [%] | Activity (Spodoptera frugiperda [2])
1 | C/C=C(\C)OC(=O)[C@H]1C(C)(C)[C@H]([C@@H](O)C(=O)OC)[C@]2(C)C(=O)[C@@]1(O)C=C1[C@@H]3CC(=O)O[C@@H](c4ccoc4)[C@]3(C)CC[C@@H]12 [2-HYDROXYSWIETENINE] | 62.6 | 31.7 | 65.8 (≈ 113 µM) | 28.2 | 
2 | COC(=O)[C@H](C(=O)Oc1ccccc1)[C@H]1C(C)(C)[C@H](C(=O)Oc2ccccc2)[C@@H]2C=C3[C@@H]4CC(=O)O[C@@H](c5ccoc5)[C@]4(C)CC[C@@H]3[C@@]1(C)C2=O [3,6-O,O-DIBENZOYL-3-DETIGLOYLISOSWIETENINE] | 18.6 | 25.7 |  | 49.2 | Toxic
3 | COC(=O)[C@H](C(=O)Oc1ccccc1)[C@H]1C(C)(C)[C@H](C(=O)Oc2ccccc2)[C@@H]2CC3=C4CC(=O)O[C@@H](c5ccoc5)[C@]4(C)CC[C@@H]3[C@@]1(C)C2=O [3,6-O,O-DIBENZOYLSWIETENOLIDE] |  |  | 416 (≈ 599 µM) |  | 
4 | CCOC(=O)[C@@H](C(=O)OC)[C@H]1C(C)(C)[C@H](C(=O)OCC)[C@]2(O)C=C3[C@@H]4CC(=O)O[C@@H](c5ccoc5)[C@]4(C)CC[C@@H]3[C@@]1(C)C2=O [3,6-O,O-DIPROPIONYL-3-DETIGLOYL-2-HYDROXYISOSWIETENINE] | 17.5 | 15.8 | 159 (≈ 259 µM) | 32.7 | 
5 | COC(=O)[C@H](C(=O)Oc1ccccc1)[C@H]1C(C)(C)[C@H](C(=O)Oc2ccccc2)[C@]2(O)C=C3[C@@H]4CC(=O)O[C@@H](c5ccoc5)[C@]4(C)CC[C@@H]3[C@@]1(C)C2=O [3,6-O,ODIBENZOYL-3-DETIGLOYL-2-HYDROXYISOSWIETENINE] | 33.8 | 6.24 | 233 (≈ 328 µM) | 13.5 | 
6 | COC(=O)[C@H](O)[C@H]1C(C)(C)[C@H](O)[C@]2(O)C=C3[C@@H]4CC(=O)O[C@@H](c5ccoc5)[C@]4(C)CC[C@@H]3[C@@]1(C)C2=O [3-DETIGLOYL-2-HYDROXYISOSWIETENINE] | 15.8 | 29.2 | 188 (≈ 374 µM) | 22.4 | 
7 | COC(=O)C(O)[C@H]1C(C)(C)[C@@H](O)[C@@H]2C(=O)[C@]1(C)[C@H]1CC[C@]3(C)[C@@H](CC(=O)O[C@H]3c3ccoc3)[C@]13O[C@@H]23 (stereo partly specified) [3-DETIGLOYLISOSWIETEMAHONIN G] | 49.1 | 45.1 | 107 (≈ 213 µM) | 54.6 | 
8 | COC(=O)[C@H](O)[C@H]1C(C)(C)[C@H](O)[C@@H]2C=C3[C@@H]4CC(=O)O[C@@H](c5ccoc5)[C@]4(C)CC[C@@H]3[C@@]1(C)C2=O [3-DETIGLOYLISOSWIETENINE] | 56 | 17.8 | 101 (≈ 208 µM) | 15.2 | 
9 | COC(=O)COC(=O)[C@@H]1[C@@H]2CC3=C4CC(=O)O[C@@H](c5ccoc5)[C@]4(C)CC[C@@H]3[C@@](C)(C2=O)[C@@H]([C@@H](O)C(=O)OC)C1(C)C [3-O-ACETOXYACETYLSWIETENOLIDE] | 19 | 35.9 | 12.4 (≈ 21.1 µM) | 30.2 | 
10 | COC(=O)[C@H](O)[C@H]1C(C)(C)[C@H](C(=O)Oc2ccccc2)[C@@H]2C=C3[C@@H]4CC(=O)O[C@@H](c5ccoc5)[C@]4(C)CC[C@@H]3[C@@]1(C)C2=O [3-O-BENZOYL-3-DETIGLOYLISOSWIETENINE] | 57.8 | 8.18 | 254 (≈ 430 µM) | 27.1 | 
11 | COC(=O)[C@H](O)[C@H]1C(C)(C)[C@H](C(=O)Oc2ccccc2)[C@@H]2CC3=C4CC(=O)O[C@@H](c5ccoc5)[C@]4(C)CC[C@@H]3[C@@]1(C)C2=O [3-O-BENZOYLSWIETENOLIDE] |  |  | 244 (≈ 414 µM) |  | 
12 | COC(=O)[C@H](O)[C@H]1C(C)(C)[C@H](C(=O)OC(C)C)[C@@H]2CC3=C4CC(=O)O[C@@H](c5ccoc5)[C@]4(C)CC[C@@H]3[C@@]1(C)C2=O [3-O-ISOBUTYRYLSWIETENOLIDE] | 35.1 | 45.9 | 0.009 (≈ 0.0162 µM) | 33.1 | 
13 | COC(=O)[C@H](O)[C@H]1C(C)(C)[C@H](C(=O)OCC(C)C)[C@@H]2CC3=C4CC(=O)O[C@@H](c5ccoc5)[C@]4(C)CC[C@@H]3[C@@]1(C)C2=O [3-O-ISOVALERYLSWIETENOLIDE] | 54.5 | 23.7 | 0.19 (≈ 0.333 µM) | 26.2 | 
14 | CCOC(=O)[C@@H]1[C@@H]2C=C3[C@@H]4CC(=O)O[C@@H](c5ccoc5)[C@]4(C)CC[C@@H]3[C@@](C)(C2=O)[C@@H]([C@@H](O)C(=O)OC)C1(C)C [3-O-PROPIONYL-3-DETIGLOYLISOSWIETENINE] | 32 | 12.5 | 81.9 (≈ 151 µM) | 13.5 | 
15 | CCOC(=O)[C@@H]1[C@@H]2CC3=C4CC(=O)O[C@@H](c5ccoc5)[C@]4(C)CC[C@@H]3[C@@](C)(C2=O)[C@@H]([C@@H](O)C(=O)OC)C1(C)C [3-O-PROPIONYLSWIETENOLIDE] | 41.7 | 18.3 | 53.8 (≈ 99.1 µM) | 16.6 | 
16 | C/C=C(\C)OC(=O)[C@@H]1[C@@H]2C=C3[C@@H]4CC(=O)O[C@@H](c5ccoc5)[C@]4(C)CC[C@@H]3[C@@](C)(C2=O)[C@@H]([C@H](C(=O)OC)C(=O)Oc2ccccc2)C1(C)C [6-O-BENZOYLSWIETENINE] | 28.7 | 32.8 | 406 (≈ 604 µM) | 10.2 | 
17 | COC(=O)[C@H](C(=O)Oc1ccccc1)[C@H]1C(C)(C)[C@H](O)[C@@H]2CC3=C4CC(=O)O[C@@H](c5ccoc5)[C@]4(C)CC[C@@H]3[C@@]1(C)C2=O [6-O-BENZOYLSWIETENOLIDE] | 27.1 | 43.8 | 73.2 (≈ 124 µM) | 39.5 | 
18 | CCOC(=O)[C@@H](C(=O)OC)[C@H]1C(C)(C)[C@H](O)[C@@H]2CC3=C4CC(=O)O[C@@H](c5ccoc5)[C@]4(C)CC[C@@H]3[C@@]1(C)C2=O [6-O-PROPIONYLSWIETENOLIDE] | 62.6 | 21.4 | 57.1 (≈ 105 µM) | 27.1 | 
19 | CC1(C)[C@H]([C@@H](O)C(=O)O)[C@]2(C)C(=O)[C@@](O)(C=C3[C@@H]4CC(=O)O[C@@H](c5ccoc5)[C@]4(C)CC[C@@H]32)[C@H]1O [DEMETHYL-3-DETIGLOYL-2-HYDROXYISOSWIETENINE] | 24.5 | 13.2 | > 10000 | 11.1 | 
20 | CC1(C)[C@H](O)[C@@H]2C=C3[C@@H]4CC(=O)O[C@@H](c5ccoc5)[C@]4(C)CC[C@@H]3[C@@](C)(C2=O)[C@H]1[C@@H](O)C(=O)O [DEMETHYL-3-DETIGLOYLISOSWIETENINE] | 10.2 | 14.1 | 214 (≈ 454 µM) | 21.6 | 
21 | CC1(C)[C@H](O)[C@@H]2CC3=C4CC(=O)O[C@@H](c5ccoc5)[C@]4(C)CC[C@@H]3[C@@](C)(C2=O)[C@H]1[C@@H](O)C(=O)OO [DEMETHYLISOSWIETENOLIDE] | 32.6 | 9.01 | 254 (≈ 520 µM) | 24 | 
22 | CCOC(=O)[C@@H](C(=O)OC)[C@H]1C(C)(C)[C@H](C(=O)OCC)[C@@H]2CC3=C4CC(=O)O[C@@H](c5ccoc5)[C@]4(C)CC[C@@H]3[C@@]1(C)C2=O [O,O-DIPROPIONYLSWIETENOLIDE] | 52.7 | 32.7 | 45.5 (≈ 76 µM) | 20.8 | 
23 | C/C=C(\C)OC(=O)[C@H]1[C@@H]2C(=O)[C@](C)([C@H]3CC[C@]4(C)[C@@H](CC(=O)O[C@H]4c4ccoc4)[C@]34O[C@@H]24)[C@@H](C(O)C(=O)OC)C1(C)C (stereo partly specified) [SWIETEMAHONIN G] | 44.3 | 32.8 | 13.8 (≈ 23.6 µM) | 48.1 | 
